Assay in all cases: combination Emax (second highest fraction inhibited in the dose matrix, 72 h); higher = more inhibition; extreme values may be limits of the assay
The subject of experiment [1] is A4-Fuk (B-Lymphoblastic Leukemia). Put shortly: (§1)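 Bliss excess equals the observed combination effect minus the expected value EA + EB − EA·EB, where EA and EB are the effects of each agent alone. Combination Emax is the second-highest inhibition within the matrix. Inhibition was scaled from CellTiter-Glo 2.0 luminescence, with 0 set by vehicle wells and 1 by blank wells, after 72 hours of two-drug dosing of cells plated in 1536-well plates.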

Experiment [2] concerns CADO-ES1 (Ewing's Sarcoma). Put shortly:
as §1

The test system of experiment [3] is COLO-668 (Small Cell Lung Carcinoma). Put shortly: as §1
For a further experiment, the system named is COLO-679 (Melanoma). Put shortly: as §1
Experiment [4] has as its system Ca-Ski (Cervical Carcinoma). In short, it runs like this:
as §1

Experiment [5] deals with DU-145 (Prostate Carcinoma). Put shortly:
as §1

Experiment [6] relates to KGN (Other Solid Carcinomas). In short, it runs like this: as §1
In experiment [7] the test system is KMRC-1 (Kidney Carcinoma). Put shortly:
as §1

Experiment [8] deals with KOPN-8 (B-Lymphoblastic Leukemia). In short, it runs like this: as §1
The subject of experiment [9] is MDA-MB-453 (Breast Carcinoma). In short, it runs like this: as §1
Experiment [10] relates to MOLT-4 (T-Lymphoblastic Leukemia). In short, it runs like this: as §1
Experiment [11] deals with Mo-T (Other Blood Carcinomas). Put shortly: as §1
The test system of experiment [12] is NCI-H1355 (Lung Adenocarcinoma). Put shortly: as §1
Experiment [13] deals with NCI-H1838 (Lung Adenocarcinoma). Put shortly:
as §1

The test system of experiment [14] is NCI-H522 (Lung Adenocarcinoma). In short, it runs like this: as §1
For experiment [15], the system named is NCI-H650 (Lung Adenocarcinoma). In short, it runs like this: as §1
Experiment [16] deals with OACM5-1 (Esophageal Adenocarcinoma). Put shortly: as §1
In experiment [17] the test system is SK-LU-1 (Lung Adenocarcinoma). In short, it runs like this: as §1
Experiment [18] relates to SKN (Other Solid Carcinomas). In short, it runs like this:
as §1

In experiment [19] the test system is SNU-387 (Hepatocellular Carcinoma). In short, it runs like this: as §1

On to `Cn1cnc2c(F)c(Nc3ccc(Br)cc3Cl)c(C(=O)NOCCO)cc21` [Selumetinib] + CCN(CCO)CCCOc1ccc2c(Nc3cc(CC(=O)Nc4cccc(F)c4)[nH]n3)ncnc2c1 [AZD2811] (first compound max 10 µM, 7x7, partner max 1 µM), for which the “combination Emax” value in experiment [1] stood at 0.661; in [2], 0.276; in experiment [3] it was 0.407; in the experiment with COLO-679 (Melanoma) it was 0.815; in experiment [4], 0.54; in experiment [5], 0.203. The “combination Emax” value in [6] was 0.514; in experiment [7] it was 0.233; in experiment [8] it was 1; in experiment [9], 0.162; in experiment [10], 0.992; in experiment [11], 0.238. The “combination Emax” value in experiment [12] was 0.275; in experiment [13] it was 0.322; in experiment [14], 0.171; in experiment [15], 0.387; in experiment [16] it was 0.44; in experiment [17], 0.301. The entries for the “combination Emax” value in [18] and in [19] were 0.255 and 0.319, respectively.

On to `Cn1cnc2c(F)c(Nc3ccc(Br)cc3Cl)c(C(=O)NOCCO)cc21` [Selumetinib] + C[C@@H]1COCCN1C2=NC(=NC(=C2)C3(CC3)[S@](=N)(=O)C)C4=C5C=CNC5=NC=C4 [AZD6738] (first compound max 10 µM, 7x7, partner max 10 µM), for which the “combination Emax” value was determined as 0.836 in experiment [1]; 0.822 in experiment [2]; 0.735 in experiment [3]; 0.82 in the experiment with COLO-679 (Melanoma); 0.638 in [4]; 0.347 in [5]. Besides, the “combination Emax” value in experiment [6] was 0.808; in [7] it was 0.373; in [8], 1; in [9], 0.684; in [10], 0.991; in experiment [11], 0.362. For the same compound, the “combination Emax” value in experiment [12] was determined as 0.596; in [13] it was 0.374; in experiment [14], 0.0701; in [15], 0.619; in [16] it was 0.612; in [17], 0.376. The figures for the “combination Emax” value in experiment [18] and in experiment [19] were 0.423 and 0.454, respectively.

These data come from the supplement of paper PMC11061612.
